From US9283222B2 (priority 2006, dated 2016)
Like-named read-outs stand apart in the source and are kept apart here.

Experiments:
[1] = target: Recombinant Human Poly(ADP-Ribose) Polymerase (PARP), PARP-1 (Homo sapiens (Human), UniProt P09874); conditions: read-out: PARP-1 (Ki)
Protocol: Nicotinamide[2,5′,8-3H]adenine dinucleotide and strepavidin SPA beads were purchased from Amersham Biosiences. […] NAD^+, histone, aminobenzamide, 3-amino benzamide and Calf Thymus DNA (dcDNA) were purchased from Sigma. Stem loop oligonucleotide containing MCAT sequence was obtained from Qiagen. The oligos were dissolved to 1 mM in annealing buffer containing 10 mM Tris HCl pH 7.5, 1 mM EDTA, and 50 mM NaCl, incubated for 5 minutes at 95° C., and annealed at 45° C. for 45 minutes. […] Biotinylated histone H1 was prepared by treating the protein with Sulfo-NHS-LC-Biotin from Pierce. The biotinylation reaction was conducted by slowly and intermittently adding 3 equivalents of 10 mM Sulfo-NHS-LC-Biotin to 100 μM Histone H1 in phosphate-buffered saline, pH 7.5, at 4° C. with gentle vortexing over 1 minute followed by subsequent 4° C. incubation for 1 hour. Streptavidin coated (FlashPlate Plus) microplates were purchased from Perkin Elmer.
PARP1 assay was conducted in PARP assay buffer containing 50 mM Tris pH 8.0, 1 mM DTT, 4 mM MgCl2. […] Auto reactions utilizing SPA bead-based detection were carried out in 100 μL volumes in white 96 well plates.

[2] = target: PARP in C41 cells (Homo sapiens (Human), UniProt P09874)
[3] = Table 3, H analogs versus para-F analogs
[4] = Table 3, C41 cells, ratio to comparator EC50
[5] = Table 1, text calls the values EC50s

Sequence of Recombinant Human Poly(ADP-Ribose) Polymerase (PARP), PARP-1 (P09874 whole entry): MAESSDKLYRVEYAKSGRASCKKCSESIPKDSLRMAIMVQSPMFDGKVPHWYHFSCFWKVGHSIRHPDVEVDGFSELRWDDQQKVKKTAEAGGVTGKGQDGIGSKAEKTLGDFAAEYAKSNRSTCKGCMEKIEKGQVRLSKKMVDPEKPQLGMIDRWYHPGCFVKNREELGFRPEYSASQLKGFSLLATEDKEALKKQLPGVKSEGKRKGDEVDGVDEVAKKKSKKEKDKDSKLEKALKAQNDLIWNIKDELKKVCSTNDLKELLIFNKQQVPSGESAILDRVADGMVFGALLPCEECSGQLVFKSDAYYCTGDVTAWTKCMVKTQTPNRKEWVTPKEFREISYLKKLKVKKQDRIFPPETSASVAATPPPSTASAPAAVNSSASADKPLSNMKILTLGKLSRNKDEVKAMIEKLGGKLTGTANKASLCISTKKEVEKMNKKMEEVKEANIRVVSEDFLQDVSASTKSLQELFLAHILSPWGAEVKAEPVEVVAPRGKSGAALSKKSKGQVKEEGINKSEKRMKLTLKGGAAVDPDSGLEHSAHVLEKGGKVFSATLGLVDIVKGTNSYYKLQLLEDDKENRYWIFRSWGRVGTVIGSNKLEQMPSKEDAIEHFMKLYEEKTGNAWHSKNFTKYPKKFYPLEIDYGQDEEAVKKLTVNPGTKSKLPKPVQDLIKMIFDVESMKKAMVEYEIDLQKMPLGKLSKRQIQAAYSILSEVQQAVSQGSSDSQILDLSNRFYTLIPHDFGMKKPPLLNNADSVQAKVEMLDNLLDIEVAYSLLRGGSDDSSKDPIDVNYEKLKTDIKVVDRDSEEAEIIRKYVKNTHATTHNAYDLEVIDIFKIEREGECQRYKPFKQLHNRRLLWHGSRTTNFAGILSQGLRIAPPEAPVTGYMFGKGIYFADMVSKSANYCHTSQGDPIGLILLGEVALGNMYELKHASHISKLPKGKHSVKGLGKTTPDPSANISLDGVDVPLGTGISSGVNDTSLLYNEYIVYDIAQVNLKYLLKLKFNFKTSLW
Sequence of PARP in C41 cells (P09874 whole entry): as above

Ki [1, 5]	SMILES	Ki [1, 3]	Cell EC50 ratio [2, 4]	Cell EC50 ratio [2]
–	Cc1c(C(=O)Nc2cccc(Cc3n[nH]c(=O)c4c3CCCC4)c2)cnn1-c1ccccc1 [drawing 22]	9 nM	14.1	–
–	O=C(Nc1cccc(Cc2n[nH]c(=O)c3c2CCCC3)c1)C1CNC1 [drawing 12]	6.3 nM	–	246
–	O=C(c1cc(Cc2n[nH]c(=O)c3c2CCCC3)ccc1F)N1CCN(c2ccc(F)cc2)CC1 [drawing 41]	4 nM	–	0.8
–	O=C(c1cc(Cc2n[nH]c(=O)c3c2CCCC3)ccc1F)N1CCN(c2ccccn2)CC1 [drawing 33]	2 nM	0.4	–
–	CN1CCCN(C(=O)c2cccc(Cc3n[nH]c(=O)c4c3CCCC4)c2)CC1 [drawing 42]	10 nM	3.8	–
–	COc1ccc(C(=O)CCC(=O)Nc2cccc(Cc3n[nH]c(=O)c4c3CCCC4)c2)cc1 [drawing 14]	1.9 nM	20.9	–
–	CCN(CC)C(=O)C1CCCN(C(=O)c2cc(Cc3n[nH]c(=O)c4c3CCCC4)ccc2F)C1 (centres unmarked) [drawing 51]	6 nM	17	–
–	NC(=O)C1CCN(C(=O)c2cc(Cc3n[nH]c(=O)c4c3CCCC4)ccc2F)CC1 [drawing 49]	2.7 nM	25	–
–	O=C1CCC(=O)N1c1cccc(Cc2n[nH]c(=O)c3c2CCCC3)c1	2 nM	1.7	–
–	CN(C)CCN(C)C(=O)c1cccc(Cc2n[nH]c(=O)c3c2CCCC3)c1	13 nM	3	–
–	COc1ccc(C(=O)CCC(=O)Nc2cc(Cc3n[nH]c(=O)c4c3CCCC4)ccc2F)cc1 [drawing 15]	0.7 nM	2.6	–
–	O=C1CCCN1c1cccc(Cc2n[nH]c(=O)c3c2CCCC3)c1 [drawing 16]	39.6 nM	40.9	–
–	O=C(c1cc(Cc2n[nH]c(=O)c3c2CCCC3)ccc1F)N1CCN(c2ccccc2F)CC1 [drawing 39]	13 nM	1.3	–
–	CC(=O)N1CCN(C(=O)c2cc(Cc3n[nH]c(=O)c4c3CCCC4)ccc2F)CC1 [drawing 29]	0.1 nM	2.3	–
–	O=C(c1cccc(Cc2n[nH]c(=O)c3c2CCCC3)c1)N1CCN(c2ccccc2)CC1 [drawing 34]	3 nM	3.2	–
–	O=C1CCCN1c1cc(Cc2n[nH]c(=O)c3c2CCCC3)ccc1F [drawing 17]	1.2 nM	–	0.85
–	NC(=O)C1CCCN(C(=O)c2cc(Cc3n[nH]c(=O)c4c3CCCC4)ccc2F)C1 (centres unmarked) [drawing 45]	3 nM	28	–
–	CN1CCN(CCNC(=O)c2cccc(Cc3n[nH]c(=O)c4c3CCCC4)c2)CC1 [drawing 54]	24 nM	31	–
–	O=C(CCCC(=O)Nc1cc(Cc2n[nH]c(=O)c3c2CCCC3)ccc1F)Nc1ccccc1 [drawing 21]	0.6 nM	0.34	–

Ki [1, 5]	SMILES	Ki [1, 3]	Cell EC50 ratio [2, 4]	Cell EC50 ratio [2]
–	O=C(c1cccc(Cc2n[nH]c(=O)c3c2CCCC3)c1)N1CCN(c2ccccn2)CC1 [drawing 32]	3 nM	1.9	–
–	CCN1CCN(C(=O)c2cccc(Cc3n[nH]c(=O)c4c3CCCC4)c2)CC1 [drawing 30]	10 nM	1.8	–
–	NCC(=O)Nc1cccc(Cc2n[nH]c(=O)c3c2CCCC3)c1 [drawing 10]	12 nM	22.5	–
229 nM	CN(C)C(=O)c1ccc(-c2cc(Cc3n[nH]c(=O)c4c3CCCC4)ccc2F)cc1 [Example 253, 2′-fluoro-N,N-dimethyl-5′-((4-oxo-3,4,5,6,7,8-hexahydrophthalazin-1-yl)methyl)-1,1′-biphenyl-4-carboxamide]	–	–	–
180 nM	COc1ccc(C(C)(C)C)cc1NC(=O)c1cccc(Cc2n[nH]c(=O)c3c2CCCC3)c1 [Example 356, N-(5-tert-butyl-2-methoxyphenyl)-3-((4-oxo-3,4,5,6,7,8-hexahydrophthalazin-1-yl)methyl)benzamide]	–	–	–
2.4 nM	COc1ccc(C(=O)N2CCN(C(=O)c3cc(Cc4n[nH]c(=O)c5c4CCCC5)ccc3F)CC2)cc1 [Example 622, 4-(4-fluoro-3-{[4-(4-methoxybenzoyl)piperazin-1-yl]carbonyl}benzyl)-5,6,7,8-tetrahydrophthalazin-1(2H)-one]	–	–	–
570 nM	Cn1cccc1C(=O)Nc1cccc(Cc2n[nH]c(=O)c3c2CCCC3)c1 [Example 201, 1-methyl-N-(3-((4-oxo-3,4,5,6,7,8-hexahydrophthalazin-1-yl)methyl)phenyl)-1H-pyrrole-2-carboxamide]	–	–	–
1.3 nM	CCC(=O)N1CCN(C(=O)c2cc(Cc3n[nH]c(=O)c4c3CCCC4)ccc2F)CC1 [Example 585, 4-{4-fluoro-3-[(4-propionylpiperazin-1-yl)carbonyl]benzyl}-5,6,7,8-tetrahydrophthalazin-1(2H)-one]	–	–	–
40 nM	O=C(NCCN1CCCCC1)c1cccc(Cc2n[nH]c(=O)c3c2CCCC3)c1 [Example 64, 3-((4-oxo-3,4,5,6,7,8-hexahydrophthalazin-1-yl)methyl)-N-(2-piperidin-1-ylethyl)benzamide]	–	–	–
44 nM	O=C(NCCc1ccc(F)cc1)c1cccc(Cc2n[nH]c(=O)c3c2CCCC3)c1 [Example 387, N-(2-(4-fluorophenyl)ethyl)-3-((4-oxo-3,4,5,6,7,8-hexahydrophthalazin-1-yl)methyl)benzamide]	–	–	–
22 nM	COc1ccc(CCN(C)C(=O)c2cccc(Cc3n[nH]c(=O)c4c3CCCC4)c2)cc1OC [Example 427, N-(2-(3,4-dimethoxyphenyl)ethyl)-N-methyl-3-((4-oxo-3,4,5,6,7,8-hexahydrophthalazin-1-yl)methyl)benzamide]	–	–	–
60 nM	O=C1CC[C@H](C(=O)Nc2cccc(Cc3n[nH]c(=O)c4c3CCCC4)c2)N1 [Example 140, 5-oxo-N-(3-((4-oxo-3,4,5,6,7,8-hexahydrophthalazin-1-yl)methyl)phenyl)-D-prolinamide]	–	–	–
1140 nM	CN(C)CCNC(=O)c1cccc(-c2cc(CCc3n[nH]c(=O)c4c3CCCC4)ccc2F)c1 [Example 271, N-(2-(dimethylamino)ethyl)-2′-fluoro-5′-(2-(4-oxo-3,4,5,6,7,8-hexahydrophthalazin-1-yl)ethyl)-1,1′-biphenyl-3-carboxamide]	–	–	–
–	O=C(c1cccc(Cc2n[nH]c(=O)c3c2CCCC3)c1)N1CCN(c2ccccc2F)CC1 [drawing 38]	4 nM	–	–
1440 nM	CC(Cc1n[nH]c(=O)c2c1CCCC2)c1ccc(F)c(-c2cccc(CNS(C)(=O)=O)c2)c1 (centres unmarked) [Example 297]	–	–	–
5 nM	COCCC(=O)Nc1cc(Cc2n[nH]c(=O)c3c2CCCC3)ccc1F [Example 456, N-(2-fluoro-5-((4-oxo-3,4,5,6,7,8-hexahydrophthalazin-1-yl)methyl)phenyl)-3-methoxypropanamide]	–	–	–
2.4 nM	O=C(c1cnc2ccccc2c1)N1CCCN(C(=O)c2cc(Cc3n[nH]c(=O)c4c3NCCC4)ccc2F)CC1 [Example 688, 8-(4-fluoro-3-{[4-(quinolin-3-ylcarbonyl)-1,4-diazepan-1-yl]carbonyl}benzyl)-2,3,4,6-tetrahydropyrido[2,3-d]pyridazin-5(1H)-one]	–	–	–
2.1 nM	O=C(c1cc(Cc2n[nH]c(=O)c3c2NCCC3)ccc1F)N1CCN(c2ccccc2Cl)CC1 [Example 554, 8-(3-{[4-(2-chlorophenyl)piperazin-1-yl]carbonyl}-4-fluorobenzyl)-2,3,4,6-tetrahydropyrido[2,3-d]pyridazin-5(1H)-one]	–	–	–
